This note sets out measurements from US20250066370A1, “BICYCLIC TRIAZINE DERIVATIVES FOR THE TREATMENT OF CANCER” (DEUTSCHES KREBSFORSCHUNGSZENTRUM, priority 2022, published 2025).

SMILES strings stand for the structures. A value given as a limit tells only on which side of the number the result lay.

Experiment [1] relates to MDA-MB-231, human breast cancer cells. As to the kind of experiment: Proliferation assay MDA-MB-231 (crystal violet). Type of experiment: cell-based. Particulars: 96 h, MDA-MB-231 parental cells, 4 days, median, read-out: Prolif-MDA MB-231, IC50 - [mol/l] (median). The method, then: Human tumour cells were originally obtained from the American Type Culture Collection (ATCC), or from the Deutsche Sammlung von Mikroorganismen und Zellkulturen (DSMZ, German Collection of Microorganisms and Cell Cultures). Cultivated tumour cells (CAL-120, human breast adenocarcinoma cells, DSMZ ACC-459; MDA-MB-231, human breast cancer cells, ATCC HTB-26) were plated at a density of 4,000 cells/well in a 96-well multitier plate in 200 microL of their respective growth medium supplemented 10% fetal calf serum. After 24 hours, the cells of one plate (zero-point plate) were stained with crystal violet (see below), while the medium of the other plates was supplemented with the test substances in various concentrations (0 micromol/L, as well as in the range of 0.01-10 micromol/L; the final concentration of the solvent dimethyl sulfoxide was adjusted to 0.1%) using a Tecan HP D300 Digital Dispenser. The cells were incubated for 4 days in the presence of test substances. Cell proliferation was determined by staining the cells with crystal violet: the cells were fixed by adding 20 microL/measuring point of an 11% glutaric aldehyde solution for 15 minutes at room temperature. After three washing cycles of the fixed cells with water, the plates were dried at room temperature. The cells were stained by adding 100 microL/measuring point of a 0.1% crystal violet solution (pH 3.0). After three washing cycles of the stained cells with water, the plates were dried at room temperature. The dye was dissolved by adding 100 microL/measuring point of a 10% acetic acid solution. The extinction was determined by photometry at a wavelength of 595 nm. The change of cell number, in percent, was calculated by normalization of the measured values to the extinction values of the zero-point plate (=0%) and the extinction of the untreated (0 μM) cells (=100%). The IC50 values (inhibitory concentration at 50% of maximal effect) were determined by means of a 4 parameter fit.

The target of another experiment is CDK12/CyclinK (Homo sapiens (Human), UniProt Q9NYV4). In words: CDK12/CycK high ATP kinase assay (TR-FRET). Type of experiment: biochemical. Particulars: for IC50: 2 mM ATP (high ATP), median, read-out: CDK12/CyclinK, 2 mM ATP (high ATP), IC50 - [mol/l] (median); for (IC50 CDK12 high ATP) to (Degradation DC50 CDK12) ratio: IC50 CDK12 at 2 mM ATP divided by CDK12 degradation DC50 (IF, CAL-120). The procedure: In the context of the present invention, the term “IC50 CDK12 hATP” refers to the IC50 values obtained according to the assay described in this section (2.2) herein below, i.e. the IC50 values for the inhibition of CDK12 at high (2 mM) ATP.
Sequence of CDK12/CyclinK (Q9NYV4 other isoform, or with tags, fused parts or gaps): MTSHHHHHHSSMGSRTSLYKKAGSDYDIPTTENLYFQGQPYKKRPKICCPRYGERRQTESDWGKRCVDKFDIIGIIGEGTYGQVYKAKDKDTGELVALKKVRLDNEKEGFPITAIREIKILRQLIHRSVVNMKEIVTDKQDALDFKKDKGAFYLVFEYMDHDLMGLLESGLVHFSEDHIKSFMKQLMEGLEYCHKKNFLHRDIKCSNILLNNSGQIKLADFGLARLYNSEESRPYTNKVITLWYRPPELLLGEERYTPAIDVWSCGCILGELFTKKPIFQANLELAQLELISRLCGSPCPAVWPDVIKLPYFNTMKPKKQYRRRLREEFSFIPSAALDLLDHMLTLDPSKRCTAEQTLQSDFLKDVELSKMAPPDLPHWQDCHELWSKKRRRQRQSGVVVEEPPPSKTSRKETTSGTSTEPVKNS
Sequence of CDK12/CyclinK (O75909 other isoform, or with tags, fused parts or gaps partner): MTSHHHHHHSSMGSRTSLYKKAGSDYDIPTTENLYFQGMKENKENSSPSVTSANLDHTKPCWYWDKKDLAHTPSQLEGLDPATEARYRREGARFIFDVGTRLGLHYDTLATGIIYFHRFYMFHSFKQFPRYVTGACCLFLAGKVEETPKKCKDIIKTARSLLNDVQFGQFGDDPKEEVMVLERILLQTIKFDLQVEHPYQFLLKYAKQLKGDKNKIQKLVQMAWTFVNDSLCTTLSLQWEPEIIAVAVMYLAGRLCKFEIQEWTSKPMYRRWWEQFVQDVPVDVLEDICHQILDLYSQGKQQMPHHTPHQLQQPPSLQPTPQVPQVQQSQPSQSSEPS
CDK12/CycK-inhibitory activity of compounds of the present invention at 2 millimol/L adenosine-tri-phosphate (ATP) was quantified employing the TR-FRET (TR-FRET=Time Resolved Fluorescence Energy Transfer) based CDK12/CycK activity inhibition assay as described in the following paragraphs.
A complex of human recombinant CDK12 and human recombinant CycK (both N-terminally His-tagged, expression and purification as described above) was used as enzyme. As substrate for the kinase reaction biotinylated peptide biotin-Ahx-KFELLPTPPLSPSRRSGL (C-terminus in amid form) was used which can be purchased e.g. form the company Biosyntan (Berlin-Buch, Germany).
For the assay 50 nanoL of a 100 fold concentrated solution of the test compound in DMSO was pipetted into either a black low volume 384 well microtiter plate or a black 1536 well microtiter plate (both Greiner Bio-One, Frickenhausen, Germany), 2 microL of a solution of CDK12/CycK in aqueous assay buffer [25 millimol/L HEPES pH 7.5, 20 millimol/L MgCl2, 5 millimol/L β-glycerophosphate, 2 millimol/L EGTA, 1.0 millimol/L dithiothreitol, 0.01% (v/v) Nonidet-P40 (Sigma), 0.01% (w/v) bovine serum albumin] were added and the mixture was incubated for 15 min at 22° C. to allow pre-binding of the test compounds to the enzyme before the start of the kinase reaction. Then the kinase reaction was started by the addition of 3 microL of a solution ATP (3.33 millimol/L=>final conc. in the 5 microL assay volume is 2 millimol/L) and substrate (1.67 micromol/L=>final conc. in the 5 microL assay volume is 1 micromol/L) in assay buffer and the resulting mixture was incubated for a reaction time of 60 min at 22° C. The concentration of CDK12/CycK was adjusted depending of the activity of the enzyme lot and was chosen appropriate to have the assay in the linear range, typical concentrations were about 0.75 nanomol/L. The reaction was stopped by the addition of 3 microL of a solution of TR-FRET detection reagents (125 nanomol/L streptavidine-XL665 [Cisbio Bioassays, Codolet, France] and 0.67 nanomol/L anti-Phospho-c-Myc (Ser 62) (E1J4K)-antibody from Cell Signalling [#13748] and 2 nanomol/L LANCE EU-W1024 labeled anti-rabbit IgG antibody [Perkin-Elmer, product no. 0083]) in an aqueous EDTA-solution (133 millimol/L EDTA, 0.27% (w/v) bovine serum albumin in 66.7 millimol/L HEPES pH 7.5).
The resulting mixture was incubated 1 h at 22° C. to allow the formation of complex between the phosphorylated biotinylated peptide and the detection reagents. Subsequently the amount of phosphorylated substrate was evaluated by measurement of the resonance energy transfer from the Eu-chelate to the streptavidine-XL. Therefore, the fluorescence emissions at 620 nm and 665 nm after excitation at 350 nm was measured in a TR-FRET reader, e.g. a Pherastar FS (BMG Labtechnologies, Offenburg, Germany) or a Viewlux (Perkin-Elmer). The ratio of the emissions at 665 nm and at […] was taken as the measure for the amount of phosphorylated substrate. The data were normalised (enzyme reaction without inhibitor=0% inhibition, all other assay components but no enzyme=100% inhibition).
For orientation: In TR-FRET formats the signal depends on donor and acceptor labels being close together.

Another experiment addresses CDK12 (Homo sapiens (Human), UniProt Q9NYV4). In words: CDK12 nuclear protein level: immunofluorescence/high content analysis in CAL-120 cells. Type of experiment: cell-based. The settings on record: 24 h, nuclear CDK12 staining intensity, median, read-out: CDK12 degradation IF, DC50 - [mol/l] (median). The method, then:
In the context of the present invention, the term “DC50 CDK12” refers to the DC50 values obtained according to the assay described in this section (7) herein below, i.e. the DC50 values for the degradation of CDK12.
CAL-120 human breast cancer cells (DSMZ ACC 459) are seeded in 1536-well microtiter plates (800 cells per well) containing 50 nanoL of compounds in Dose-Response. Control wells received DMSO or Example 4. Plates are then incubated for 24 h at 37° C. in an humidified incubator and fixed with 4% PFA for 10 min. Then immunofluorescence (IF) against CDK12 (CellSignalling CDK12 Antibody #11973, rabbit, 1:100 dilution) is performed using standard IF protocols. Cells are then stained with Hoechst 33342 (Life Technologies, H-1399, 0.1 microg/ml) and imaged on an automated confocal microscopy system (e.g. Perkin Elmer Opera Phenix). Nuclear and cytoplasmic intensity as well as the nuclear/cytoplasmic intensity ratio is determined by automated image analysis using custom generated scripts (MetaXpress). Data is then transferred to Genedata Screener software, normalized to DMSO and control and DC50 values (degrading concentration to achieve 50% reduction of nuclear CDK12 staining intensity relative to controls) are reported.

Sequence of CDK12 (Q9NYV4 whole entry): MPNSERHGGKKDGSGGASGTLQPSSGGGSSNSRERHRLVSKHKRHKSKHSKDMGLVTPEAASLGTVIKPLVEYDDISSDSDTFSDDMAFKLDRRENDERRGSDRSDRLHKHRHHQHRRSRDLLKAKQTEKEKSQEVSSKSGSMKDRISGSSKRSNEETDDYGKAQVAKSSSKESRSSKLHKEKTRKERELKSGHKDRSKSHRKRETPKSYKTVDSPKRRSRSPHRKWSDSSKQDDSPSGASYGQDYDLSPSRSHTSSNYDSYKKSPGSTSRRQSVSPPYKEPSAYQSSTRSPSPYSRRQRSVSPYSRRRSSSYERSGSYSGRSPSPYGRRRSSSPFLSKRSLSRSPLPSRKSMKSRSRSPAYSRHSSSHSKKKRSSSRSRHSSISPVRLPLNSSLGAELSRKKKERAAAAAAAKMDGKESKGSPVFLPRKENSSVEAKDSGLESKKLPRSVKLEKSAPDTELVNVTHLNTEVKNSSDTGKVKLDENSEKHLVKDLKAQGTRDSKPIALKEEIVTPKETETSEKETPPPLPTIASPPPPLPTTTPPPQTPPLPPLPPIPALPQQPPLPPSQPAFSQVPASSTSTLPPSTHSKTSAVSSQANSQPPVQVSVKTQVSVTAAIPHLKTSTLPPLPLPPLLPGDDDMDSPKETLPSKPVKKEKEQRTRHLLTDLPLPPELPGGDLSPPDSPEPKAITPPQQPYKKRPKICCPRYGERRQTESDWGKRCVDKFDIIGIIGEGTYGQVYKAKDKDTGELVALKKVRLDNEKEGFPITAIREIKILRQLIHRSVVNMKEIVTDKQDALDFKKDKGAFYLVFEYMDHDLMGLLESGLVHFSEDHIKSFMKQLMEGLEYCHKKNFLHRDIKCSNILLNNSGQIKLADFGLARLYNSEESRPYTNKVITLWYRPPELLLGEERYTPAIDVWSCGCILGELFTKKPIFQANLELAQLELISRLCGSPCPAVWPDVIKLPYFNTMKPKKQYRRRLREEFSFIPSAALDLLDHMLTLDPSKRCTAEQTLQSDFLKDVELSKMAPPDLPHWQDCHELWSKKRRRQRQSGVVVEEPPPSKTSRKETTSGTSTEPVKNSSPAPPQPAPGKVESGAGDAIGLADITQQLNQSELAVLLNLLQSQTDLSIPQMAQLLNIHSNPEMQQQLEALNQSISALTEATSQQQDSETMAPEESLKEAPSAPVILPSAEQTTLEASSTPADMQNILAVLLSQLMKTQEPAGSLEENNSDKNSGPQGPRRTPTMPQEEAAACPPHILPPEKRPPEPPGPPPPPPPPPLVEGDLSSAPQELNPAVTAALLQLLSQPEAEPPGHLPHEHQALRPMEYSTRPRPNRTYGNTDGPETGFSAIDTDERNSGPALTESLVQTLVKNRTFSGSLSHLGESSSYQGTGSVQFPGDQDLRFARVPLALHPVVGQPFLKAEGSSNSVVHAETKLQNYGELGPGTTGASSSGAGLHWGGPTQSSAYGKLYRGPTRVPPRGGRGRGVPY
Sequence of CDK12 (O75909 whole entry partner): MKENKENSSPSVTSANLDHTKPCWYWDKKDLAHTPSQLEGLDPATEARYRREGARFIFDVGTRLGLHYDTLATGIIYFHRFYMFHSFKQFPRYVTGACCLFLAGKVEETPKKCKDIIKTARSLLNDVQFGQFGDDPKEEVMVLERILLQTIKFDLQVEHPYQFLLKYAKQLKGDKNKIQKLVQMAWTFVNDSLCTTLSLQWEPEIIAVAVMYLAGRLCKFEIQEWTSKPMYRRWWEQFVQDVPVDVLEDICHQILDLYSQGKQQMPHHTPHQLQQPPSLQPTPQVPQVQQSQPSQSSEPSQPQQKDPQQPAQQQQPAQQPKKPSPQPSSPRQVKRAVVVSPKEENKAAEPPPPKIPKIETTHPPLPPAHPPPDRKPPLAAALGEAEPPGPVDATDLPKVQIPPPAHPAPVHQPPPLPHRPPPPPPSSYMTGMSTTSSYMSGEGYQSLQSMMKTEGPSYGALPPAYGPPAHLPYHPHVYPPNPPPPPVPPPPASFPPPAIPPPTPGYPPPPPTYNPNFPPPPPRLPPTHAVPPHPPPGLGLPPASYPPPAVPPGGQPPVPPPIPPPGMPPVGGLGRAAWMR

As to `FC(F)(F)c1ccc(-c2nnc(CNc3nc(N4CCOCC4)nn4c(C(F)(F)F)cnc34)[nH]2)cn1` [Example 20, 2-(morpholin-4-yl)-7-(trifluoromethyl)-N-({5-[6-(trifluoromethyl)pyridin-3-yl]-4H-1,2,4-triazol-3-yl}methyl)imidazo[2,1-f][1,2,4]triazin-4-amine], the IC50 in experiment [1] turned out to be 52.9 nM. Besides, at CDK12/CyclinK, the IC50 stood at 11.9 nM and the “(IC50 CDK12 high ATP) to (Degradation DC50 CDK12) ratio” value is reported as under 0.01. On CDK12, the DC50 was over 1000 nM.
Consider `FC(F)(F)Oc1ccc(-c2nnc(CNc3nc(N4CCOCC4)nc4c(C(F)(F)F)cnn34)[nH]2)cc1` [Example 5, 2-(morpholin-4-yl)-N-({5-[4-(trifluoromethoxy)phenyl]-4H-1,2,4-triazol-3-yl}methyl)-8-(trifluoromethyl)pyrazolo[1,5-a][1,3,5]triazin-4-amine], for which the IC50 in experiment [1] came out at 319 nM. On CDK12/CyclinK, the IC50 worked out at 262 nM and the “(IC50 CDK12 high ATP) to (Degradation DC50 CDK12) ratio” value came out at 0.26. Further, at CDK12, the DC50 was 1000 nM.
The matching figures for `Cc1ccc(-c2nnc(CNc3nc(N4CCOCC4)nn4c(C(F)(F)F)cnc34)[nH]2)cn1` [Example 23, N-{[5-(6-methylpyridin-3-yl)-4H-1,2,4-triazol-3-yl]methyl}-2-(morpholin-4-yl)-7-(trifluoromethyl)imidazo[2,1-f][1,2,4]triazin-4-amine]: 75.8 nM, 160 nM, under 0.16 and over 1000 nM.
The corresponding values for `Cc1ccc(-c2nnc(CNc3nc(N4CCOCC4)nc4c(C(F)(F)F)cnn34)[nH]2)cn1` [Example 22, N-{[5-(6-methylpyridin-3-yl)-4H-1,2,4-triazol-3-yl]methyl}-2-(morpholin-4-yl)-8-(trifluoromethyl)pyrazolo[1,5-a][1,3,5]triazin-4-amine] are 286 nM, 489 nM, under 0.49 and over 1000 nM.
With `FC(F)(F)Oc1ccc(-c2cnc(CNc3nc(N4CCOCC4)nc4c(C(F)(F)F)cnn34)[nH]2)cc1` [Example 10, 2-(morpholin-4-yl)-N-({5-[4-(trifluoromethoxy)phenyl]-1H-imidazol-2-yl}methyl)-8-(trifluoromethyl)pyrazolo[1,5-a][1,3,5]triazin-4-amine], the IC50 was determined as 123 nM in experiment [1] and 7.59 nM at CDK12/CyclinK. Further, at CDK12/CyclinK, the “(IC50 CDK12 high ATP) to (Degradation DC50 CDK12) ratio” value is recorded as under 7.59E−3. Further, the DC50 on CDK12 was over 1000 nM.
Regarding `FC(F)(F)Oc1ccc(-c2cnc(CNc3nc(N4CCOCC4)nn4c(C(F)(F)F)cnc34)[nH]2)cc1` [Example 8, 2-(morpholin-4-yl)-N-({5-[4-(trifluoromethoxy)phenyl]-1H-imidazol-2-yl}methyl)-7-(trifluoromethyl)imidazo[2,1-f][1,2,4]triazin-4-amine], the IC50 in experiment [1] was 114 nM. Also, on CDK12/CyclinK, the IC50 is 8.34 nM and the “(IC50 CDK12 high ATP) to (Degradation DC50 CDK12) ratio” value is 9.34E−03. In addition, the DC50 on CDK12 stood at 893 nM.
With `FC(F)(F)c1ccc(-c2nnc(CNc3nc(N4CCOCC4)nc4c(C(F)(F)F)cnn34)[nH]2)cc1` [Example 6, 2-(morpholin-4-yl)-8-(trifluoromethyl)-N-({5-[4-(trifluoromethyl)phenyl]-4H-1,2,4-triazol-3-yl}methyl)pyrazolo[1,5-a][1,3,5]triazin-4-amine], the IC50 in experiment [1] was found to be 777 nM. Moreover, at CDK12/CyclinK, the IC50 worked out at 736 nM and the “(IC50 CDK12 high ATP) to (Degradation DC50 CDK12) ratio” value amounted to 0.74. Also, the DC50 on CDK12 stood at 1000 nM.
For the compound `FC(F)(F)c1ccc(-c2cnc(CNc3nc(N4CCOCC4)nn4c(C(F)(F)F)cnc34)[nH]2)cn1` [Example 12, 2-(morpholin-4-yl)-7-(trifluoromethyl)-N-({5-[6-(trifluoromethyl)pyridin-3-yl]-1H-imidazol-2-yl}methyl)imidazo[2,1-f][1,2,4]triazin-4-amine], the IC50 in experiment [1] came to 22.5 nM. In addition, on CDK12/CyclinK, the IC50 is 3.09 nM and the “(IC50 CDK12 high ATP) to (Degradation DC50 CDK12) ratio” value was under 3.09E−3. Besides, the DC50 at CDK12 is over 1000 nM.
On to `FC(F)(F)c1ccc(-c2nnc(CNc3nc(N4CCOCC4)nn4c(C(F)(F)F)cnc34)[nH]2)cc1` [Example 11, 2-(morpholin-4-yl)-7-(trifluoromethyl)-N-({5-[4-(trifluoromethyl)phenyl]-4H-1,2,4-triazol-3-yl}methyl)imidazo[2,1-f][1,2,4]triazin-4-amine], for which the IC50 in experiment [1] worked out at 434 nM. On CDK12/CyclinK, the IC50 stood at 32.3 nM and the “(IC50 CDK12 high ATP) to (Degradation DC50 CDK12) ratio” value was found to be 0.04. Besides, at CDK12, the DC50 was determined as 920 nM.
